The values that follow come from patent US20220402867A1, “SULFO-SUBSTITUTED BIARYL COMPOUND OR SALT THEREOF, PREPARATION METHOD THEREFOR, AND USE THEREOF” (Shanghai Litedd Co., Ltd., priority 2019, published 2022).

For orientation: half-life means the time in which the quantity being followed falls by half. The microsomal CLint is a measure of how fast metabolising enzymes remove a compound, apart from limits set by blood flow. By EC50 is commonly meant the concentration giving half of the maximal effect. As usually defined, the Emax is the greatest response seen or fitted, relative to the assay's reference.

Data set [1] is described as follows: Metabolic stability in human liver microsomes. To be noted: for microsomal CLint: 0.5 mg protein/mL. Type of data set: in vitro ADME. The text has this:
(§1) According to standard methods of in vitro metabolic stability studies in the art, eg., the methods described in Kerns, Edward H. and Di Li (2008). Drug-like Properties: Concepts, Structure Design and Methods: from ADME to Toxicity Optimization. San Diego: Academic Press; Di, Li et al., Optimization of a Higher Throughput Microsomal Stability Screening Assay for Profiling Drug Discovery Candidates, J. Biomol. Screen. 2003, The method described in 8(4), 453, the liver microsomal metabolic stability test of the compounds of the present disclosure was carried out analogously as follows.
(§2) The incubation system contained 0.5 mg protein/mL microsomes, cofactors, and PBS, was pre-incubated at 37° C. for 3 min, and then added the substrate (i.e., the test compounds) to initiate the reaction. Samples were taken at 0, 1, 5, 10, 15, 20, 30 and 60 min from the start of the reaction, and an appropriate terminator was added to terminate the reaction.
(§3) The terminator was an ice acetonitrile solution containing 100 ng/mL tolbutamide and 100 ng/mL labetalol.
(§4) Sample treatment (n=3): each appropriate sample was added, vortexed and centrifuged at high speed. The supernatants were collected, and the substrate was detected by HPLC-MS/MS. The peak area at the 0 min was taken as 100%. The peak areas at other time points were converted to percentage of the remaining amount. The natural logarithms of the percentage of remaining amount at each time point was plotted against the incubation time, and the slope (−k) was calculated by linear regression. Then, Clint (uL/min/mg) and half-life (T½, min) of the compounds were calculated following the equation of the inherent clearance rate (Clint)=(k* volume of incubation solution)/mass of liver microsomes.
A general note: Microsomes from liver hold many membrane-bound enzymes, among them those of drug oxidation.

In data set [2] the target is T1, GST-RORγ LBD (263-509) (Homo sapiens, UniProt P51449).
T1 construct: GST-RORγ LBD ((263-509) (produced at ChemPartner))
T1 sequence (P51449 263-509): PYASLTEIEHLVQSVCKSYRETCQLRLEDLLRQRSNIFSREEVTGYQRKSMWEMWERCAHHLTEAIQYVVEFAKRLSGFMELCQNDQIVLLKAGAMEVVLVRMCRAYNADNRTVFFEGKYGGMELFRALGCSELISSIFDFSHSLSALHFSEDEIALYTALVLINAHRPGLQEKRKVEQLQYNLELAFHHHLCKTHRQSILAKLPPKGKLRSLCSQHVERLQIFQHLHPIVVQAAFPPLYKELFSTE
In words: TR-FRET assay of agonistic activity on RORγ receptor. The class given is biochemical. To be noted: for EC50: TR-FRET, GST-RORγ LBD with Biotin-SRC1; for Emax: maximum activation rate, TOP of fitted curve. On the procedure: A time-resolved fluorescence resonance energy transfer (TR-FRET) assay was used for the compounds of the present disclosure, to determine the agonistic activity of the compounds on the RORγ protein receptor. The agonistic activity is expressed by the concentration for 50% of maximal effect (EC50). The experiment was performed basically with reference to the methods described in ONCOIMMUNOLOGY, 2016, VOL. 5, NO. 12, e1254854.
1. Preparation of RORγ Basal Buffer
A 100 mL basal buffer was prepared, mixed homogeneously and stored for use;
The compounds of the examples shown in the table below were prepared into solutions with DMSO as the solvent, serially diluted at 3-fold dilution to 10 concentrations starting from 10 mM, and added to the corresponding wells of a 384-well plate with each concentration of each compound in duplicate;
a. A 75 nM solution of GST-RORγ LBD ((263-509) (produced at ChemPartner)) and a 4 nM solution of Biotin-SRC1 (Glsbiochem) were prepared with the above basal buffer. The two solutions were 1:1 mixed evenly, and 10 μL of the mixed solution was added into each well of the above 384-well plate. The plate was immediately centrifugated at 1000 rpm for 10 seconds; b. A 1 nM solution of Anti-GST Eu (Cisbio, #61GSTKLA) and a 50 nM solution of SA-APC (Cisbio, […]) were prepared with the above basal buffer. The two solutions were 1:1 mixed evenly, and 10 μL of the mixed solution was added into each well of the above 384-well plate. The plate was immediately centrifugated at 1000 rpm for 10 seconds; c. The resulting 384-well plate was incubated at room temperature for 15 minutes. Data were read on an Envision microplate reader, EC50 values and E max % were calculated.
a. Readings were taken at 665 nm and 615 nm wavelengths respectively on the Envision Microplate Reader, and the ratios between them were normalized. b. Calculation was carried out with the following equation: […]
wherein X is the reading of compounds, Min is the reading of the blank solution, and Max is the reading of 10 μM SRC. c. The concentration-response curve data were fitted by a four-parameter logistic nonlinear regression model, and Emax was the TOP value of the fitted curve.

A short description of data set [3]: Metabolic stability in mouse liver microsomes. Type of data set: in vitro ADME, CD-1 mice. To be noted: for half-life: CD-1; for microsomal CLint: CD-1, 0.5 mg protein/mL.
Source text: as §1, §2, §3, §4

The target in data set [4] is T2, RORγt (RORγ-LBD chimeric receptor) (Homo sapiens, UniProt P51449).
T2 construct: host or cells: HEK293T
T2 sequence (P51449 269-508 limits assumed): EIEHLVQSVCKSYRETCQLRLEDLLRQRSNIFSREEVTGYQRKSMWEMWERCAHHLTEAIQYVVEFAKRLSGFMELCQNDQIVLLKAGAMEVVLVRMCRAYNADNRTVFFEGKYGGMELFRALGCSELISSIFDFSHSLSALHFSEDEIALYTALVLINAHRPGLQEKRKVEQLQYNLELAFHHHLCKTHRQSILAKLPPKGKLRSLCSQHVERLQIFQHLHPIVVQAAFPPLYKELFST
In words: Luciferase reporter gene assay of RORγt agonistic activity in HEK293T cells. The class given is cell-based. Set-up: Emax: dose or concentration left out as unconfirmed. To be noted: for Emax: HEK-293T. The text has this:
This assay was basically carried out according to the method described in the literature ONCOIMMUNOLOGY, 2016, VOL. 5, NO. 12, e1254854.
The RORγ-LBD coding sequence was inserted into pBIND plasmid (Promega, E1581). This expression vector and a reporter vector (pGL4.35 carrying a stably integrated luciferase reporter gene driven by GAL4 promoter) were co-expressed in HEK293T host cells. When the agonist binds to the corresponding chimeric receptor, the chimeric receptor binds to the GAL4 binding site on the reporter gene carrier and stimulates reporter gene expression. The agonistic activity of the compound on RORγ was determined according to the intensity of the chemiluminescence signal.
1.1 All test compounds were serially diluted at 3-fold dilution with DMSO, with 10 serial dilutions starting from 10 mM; LIT-00093 solution was prepared similarly. […] 1.4 The compound plate was sealed and shaken for 5 min.
Cells were cultured according to ATCC standard operation, and 6*10^6 HEK293T cells were seeded into 100 mm cell culture dishes, cultured overnight in a 37° C., 5% CO2 incubator, and then transfected. Compounds of corresponding concentrations were added for treatment, and the Steady-Glo™ kit (Lot E 2520) was used for further detection.
Chemiluminescence values were detected with Envision 2104; EC50 values were calculated.
% Activity was calculated with the following equation: […]
RLU: […] R L Upositive: average value of positive control R L Uvehicle: average value of negative control
The log values of the compound concentration and % Activity were fitted using Graphad 8.0, to calculate EC50s of the compounds.
Background: Reporter assays use an easily measured gene product as a stand-in for the process of interest.

Data set [5] deals with human PBMC (Th17 cells). In words: Th17 differentiation and IL-17 secretion in human PBMC. The class given is cell-based. As to conditions: IL-17 ELISA after 48 hours; for Emax: maximum activation rate. As for the experimental part:
Test procedure: PBMC cells were first thawed and plated, and then stimulated with stimulating factors (anti-hCD28: 5 μg/mL; rhTGF-β1: 5 ng/mL; rhIL-6: 20 ng/mL; rhIL-23: 10 ng/Ml) to differentiate to Th17, while adding different concentrations of compounds. All test compounds were serially diluted at 3-fold dilution with DMSO, with 8 serial dilutions starting from the maximum concentration 3 μM. The supermatants were collected after 48 hours for IL-17 ELISA detection, and compared with the solvent group, to determine the activation rate of the compounds on Th17 cells to secrete IL-17. EC50 values were fitted with Graphad8.0, and the TOP values fitted by the software was Emax %.
A general note: ELISA stands for enzyme-linked immunosorbent assay.

Setting [6] is: HEK293T, GAL4 luciferase reporter, read-out: EC50.

Like-named read-outs stand apart in the source and are kept apart here.

`CCS(=O)(=O)c1ccc(CC(=O)Nc2cc(Cl)c(-c3ccc(S(=O)(=O)CC)cc3)c(Cl)c2)cc1` [Example 1, N-(2,6-Dichloro-4′-(ethylsulfonyl)-[1,1′-biphenyl]-4-yl)-2-(4-(ethylsulfonyl)phenyl)acetamide]: the half-life in data set [1] is 41.8 min; in data set [3] it was 20.5 min. For the same molecule, the figures for the microsomal CLint in data set [1] and in data set [3] were 33.1 µL/min/mg and 67.6 µL/min/mg, respectively. Moreover, the “% Remaining (T = 60 min)” value came to 32.4% in data set [1] and 11.70% in data set [3]. Besides, the EC50 in data set [2] was found to be 14.5 nM; in data set [4] (setting [6]), 47 nM. Also, the figures for the Emax in data set [2] and in data set [4] were 213% and 87.1%, respectively.
As to `CS(=O)(=O)c1ccc(CC(=O)Nc2cc(Cl)c(-c3ccc(S(C)(=O)=O)cc3)c(Cl)c2)cc1` [Example 7, N-(2,6-Dichloro-4′-(methylsulfonyl)-[1,1′-biphenyl]-4-yl)-2-(4-(methylsulfonyl)phenyl)acetamide], in data set [1], the half-life was > 145 min, the intrinsic metabolic clearance (microsomal CLint) was < 9.6 µL/min/mg and the “% Remaining (T = 60 min)” value turned out to be 80.1%. In data set [2], the EC50 was 10 nM and the Emax came out at 169%. In data set [3], the “% Remaining (T = 60 min)” value is recorded as 88.20%, the half-life was > 145 min and the microsomal CLint is < 9.6 µL/min/mg. Further, the EC50 in data set [4] (setting [6]) came out at 41 nM. The molecule further gave an Emax in data set [4] of 39.4%.
With `CS(=O)(=O)c1ccc(-c2c(Cl)cc(NC(=O)Cc3ccc(S(C)(=O)=O)cn3)cc2Cl)cc1` [Example 10, N-(2,6-Dichloro-4′-(methylsulfonyl)-[1,1′-biphenyl]-4-yl)-2-(5-(methylsulfonyl)pyridin-2-yl)acetamide], in data set [1], the half-life was > 145 min, the microsomal CLint was < 9.6 µL/min/mg and the “% Remaining (T = 60 min)” value amounted to 92.5%. In addition, in data set [2], it took 114 nM to reach a half-maximal effect (EC50) and the maximum response (Emax) is 159%. Moreover, in data set [3], the “% Remaining (T = 60 min)” value was determined as 89.90%, the half-life is > 145 min and the intrinsic metabolic clearance (microsomal CLint) was < 9.6 µL/min/mg. For the same molecule, the half-maximal effective concentration (EC50) in data set [4] (setting [6]) was determined as 1460 nM. This molecule also gave a maximal response (Emax) in data set [4] of 59%.
Consider `CCS(=O)(=O)c1ccc(-c2c(Cl)cc(NCC(C(=O)O)c3ccc(S(=O)(=O)CC)cc3)cc2Cl)cc1` (stereo not shown) [Example 12-1, 3-(2,6-Dichloro-4′-(ethylsulfonyl)-[1,1′-biphenyl]-4-amino)-2-(4-(ethylsulfonyl)phenyl)propionic acid], for which, in data set [1], the half-life was > 145 min, the microsomal CLint was < 9.6 µL/min/mg and the “% Remaining (T = 60 min)” value was found to be 107.4%. For the same molecule, in data set [2], the half-maximal effective concentration (EC50) came to 6.8 nM and the Emax is 186%. For the same molecule, in data set [3], the “% Remaining (T = 60 min)” value came to 71% and the half-life was 127 min. Moreover, in data set [4] (setting [6]), the half-maximal effective concentration (EC50) is > 3000 nM.
As for `CS(=O)(=O)c1ccc(-c2c(Cl)cc(NC(=O)Cc3ccc(S(=O)(=O)CC4CC4)cc3)cc2Cl)cc1` [Example 17, 2-(4-((Cyclopropylmethyl)sulfonyl)phenyl)-N-(2,6-dichloro-4′-(methylsulfonyl)-[1,1′-biphenyl]-4-yl)acetamide], in data set [1], the half-life came out at 3.3 min, the microsomal CLint came out at 415 µL/min/mg and the “% Remaining (T = 60 min)” value came out at 0%. In data set [5], it took 113 nM to reach a half-maximal effect (EC50) and the maximum response (Emax) was 295%. In data set [3], the “% Remaining (T = 60 min)” value is 15.30%, the half-life amounted to 22.6 min and the microsomal CLint amounted to 61.2 µL/min/mg. Moreover, in data set [4], the EC50 amounted to 25 nM and the Emax is 33.9%.
As for `COCC(C(=O)Nc1cc(Cl)c(-c2ccc(S(C)(=O)=O)cc2)c(Cl)c1)c1ccc(S(=O)(=O)CC2CC2)cc1` (stereo not shown) [Example 18, 2-(4-((Cyclopropylmethyl)sulfonyl)phenyl)-N-(2,6-dichloro-4′-(methylsulfonyl)-[1,1′-biphenyl]-4-yl)-3-methoxypropionamide], in data set [1], the half-life is 11.5 min, the intrinsic clearance (microsomal CLint) was found to be 121 µL/min/mg and the “% Remaining (T = 60 min)” value worked out at 2%. In data set [5], this molecule showed a half-maximal effective concentration (EC50) of 29.4 nM and a maximal effect (Emax) of 193%. In data set [3], the “% Remaining (T = 60 min)” value stood at 15.10%, the half-life was determined as 24.1 min and the microsomal CLint was determined as 57.6 µL/min/mg. In data set [4] (setting [6]), the EC50 came to 784 nM. Moreover, in data set [4], the maximal response (Emax) was determined as 137%.
